# What was measured:
# Type in all cases: in vivo
# [1] = system: corn (Zea mays); experiment: Test D pre-/postemergence plant response; conditions: Postemergence; for Plant response rating, Corn: scale 0 to 100, 0 no effect, 100 complete control
# Method in brief: (§1)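 Two application timings were run together: preemergence onto seeded loam–sand pots, and postemergence onto 1- to 4-leaf plants (2 to 18 cm) in peat/vermiculite medium with starter nutrients. Formulation was a non-phytotoxic solvent with surfactant. Ratings, 0 to 100, were made visually versus controls after 13 to 15 greenhouse days.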
# [2] = system: pigweed (Amaranthus retroflexus); experiment: Test D pre-/postemergence plant response; conditions: Postemergence
# Method in brief: as §1
# [3] = system: galium (catchweed bedstraw, Galium aparine); experiment: Test D pre-/postemergence plant response; conditions: Postemergence; for Plant response rating, Galium: scale 0 to 100, 0 no effect, 100 complete control
# Method in brief: as §1
# [4] = system: giant foxtail (Setaria faberii); experiment: Test D pre-/postemergence plant response; conditions: Postemergence; for Plant response rating, Foxtail, Giant: scale 0 to 100, 0 no effect, 100 complete control
# Method in brief: as §1
# [5] = system: Italian ryegrass (Lolium multiflorum); experiment: Test D pre-/postemergence plant response; conditions: Postemergence
# Method in brief: as §1
# [6] = system: lambsquarters (Chenopodium album); experiment: Test D pre-/postemergence plant response; conditions: Postemergence
# Method in brief: as §1
# [7] = system: morningglory (Ipomoea coccinea); experiment: Test D pre-/postemergence plant response; conditions: Postemergence
# Method in brief: as §1
# [8] = system: barnyardgrass (Echinochloa crus-galli); experiment: Test D pre-/postemergence plant response; conditions: Postemergence; for Plant response rating, Barnyardgrass: scale 0 to 100, 0 no effect, 100 complete control
# Method in brief: as §1
# [9] = system: ragweed (common ragweed, Ambrosia elatior); experiment: Test D pre-/postemergence plant response; conditions: Postemergence
# Method in brief: as §1
# [10] = system: waterhemp (common waterhemp, Amaranthus rudis); experiment: Test D pre-/postemergence plant response; conditions: Postemergence
# Method in brief: as §1
# [11] = system: blackgrass (Alopecurus myosuroides); experiment: Test D pre-/postemergence plant response; conditions: Postemergence; for Plant response rating, Blackgrass: scale 0 to 100, 0 no effect, 100 complete control
# Method in brief: as §1
# [12] = system: corn (Zea mays); experiment: Test B pre-/postemergence plant response
# Method in brief: (§2)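 Visual injury scores on a 0–100 scale (100 = complete control) relative to untreated plants, taken about 10 days post-treatment in greenhouse. Treatments were a directed preemergence soil spray and a postemergence spray at one- to two-leaf stage, using surfactant-containing solvent formulation.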
# [13] = system: pigweed (Amaranthus retroflexus); experiment: Test B pre-/postemergence plant response
# Method in brief: as §2
# [14] = system: giant foxtail (Setaria faberii); experiment: Test B pre-/postemergence plant response
# Method in brief: as §2
# [15] = system: wheat (Triticum aestivum); experiment: Test B pre-/postemergence plant response
# Method in brief: as §2
# [16] = system: barnyardgrass (Echinochloa crus-galli); experiment: Test B pre-/postemergence plant response
# Method in brief: as §2
# [17] = 31 g ai/ha, scale 0 to 100 (0 no effect, 100 complete control)
# [18] = 62 g ai/ha, scale 0 to 100, 0 no effect, 100 complete control
# [19] = 125 g ai/ha, scale 0 to 100, 0 no effect, 100 complete control
# [20] = 125 g ai/ha, postemergence, 0 to 100 scale, 0 no effect, 100 complete control
# [21] = Postemergence, 500 g ai/ha, 0 to 100 scale (0 no effect, 100 complete control)
# [22] = Preemergence, 125 g ai/ha, 0 to 100 scale (0 no effect, 100 complete control)
# [23] = Preemergence, 500 g ai/ha, 0 to 100 scale where 0 is no effect and 100 is complete control
compound,measurement,setting,value
Clc1cnc(Oc2ccccc2-c2ccon2)nc1 [Compound 185],"Plant response rating (scale 0 to 100), Corn",[1]; 16 g ai/ha,0
same,Corn plant response rating,[1]; [17],0
same,"Plant response rating, Corn",[1]; 62 g ai/ha,5
same,"Plant response rating, Corn",[1]; 125 g ai/ha,5
same,"Plant response rating (scale 0 to 100), Pigweed",[2]; 16 g ai/ha,10
same,Pigweed plant response rating,[2]; [17],35
same,Pigweed plant response rating,[2]; [18],35
same,"Plant response rating, Pigweed",[2]; [19],50
same,"Plant response rating (scale 0 to 100), Galium",[3]; 16 g ai/ha,0
same,Galium plant response rating,[3]; [17],0
same,"Plant response rating, Galium",[3]; 62 g ai/ha,5
same,"Plant response rating, Galium",[3]; 125 g ai/ha,5
same,"Plant response rating (scale 0 to 100), Foxtail, Giant",[4]; 16 g ai/ha,35
same,"Foxtail, Giant plant response rating",[4]; [17],5
same,"Plant response rating, Foxtail, Giant",[4]; 62 g ai/ha,5
same,"Plant response rating, Foxtail, Giant",[4]; 125 g ai/ha,5
same,"Plant response rating (scale 0 to 100), Ryegrass, Italian",[5]; 16 g ai/ha,0
same,"Ryegrass, Italian plant response rating",[5]; [17],0
same,"Ryegrass, Italian plant response rating",[5]; [18],0
same,"Plant response rating, Ryegrass, Italian",[5]; [19],0
same,"Plant response rating (scale 0 to 100), Lambsquarters",[6]; 16 g ai/ha,10
same,Lambsquarters plant response rating,[6]; [17],10
same,Lambsquarters plant response rating,[6]; [18],15
same,"Plant response rating, Lambsquarters",[6]; [19],20
same,"Plant response rating (scale 0 to 100), Morningglory",[7]; 16 g ai/ha,0
same,Morningglory plant response rating,[7]; [17],25
same,Morningglory plant response rating,[7]; [18],10
same,"Plant response rating, Morningglory",[7]; [19],65
same,"Plant response rating (scale 0 to 100), Barnyardgrass",[8]; 16 g ai/ha,0
same,Barnyardgrass plant response rating,[8]; [17],0
same,"Plant response rating, Barnyardgrass",[8]; 62 g ai/ha,0
same,"Plant response rating, Barnyardgrass",[8]; 125 g ai/ha,5
same,"Plant response rating (scale 0 to 100), Ragweed",[9]; 16 g ai/ha,10
same,Ragweed plant response rating,[9]; [17],20
same,Ragweed plant response rating,[9]; [18],15
same,"Plant response rating, Ragweed",[9]; [19],25
same,"Plant response rating (scale 0 to 100), Waterhemp",[10]; 16 g ai/ha,5
same,Waterhemp plant response rating,[10]; [17],25
same,Waterhemp plant response rating,[10]; [18],25
same,"Plant response rating, Waterhemp",[10]; [19],30
same,"Plant response rating (scale 0 to 100), Blackgrass",[11]; 16 g ai/ha,0
same,Blackgrass plant response rating,[11]; [17],0
same,"Plant response rating, Blackgrass",[11]; 62 g ai/ha,0
same,"Plant response rating, Blackgrass",[11]; 125 g ai/ha,0
same,"Plant response rating, Corn",[12]; [20],0
same,"Plant response rating, Corn",[12]; [21],10
same,"Plant response rating, Pigweed",[13]; [20],90
same,"Plant response rating, Pigweed",[13]; [21],100
same,Pigweed plant response rating,[13]; [22],90
same,"Plant response rating, Pigweed",[13]; [23],100
same,"Plant response rating, Foxtail, Giant",[14]; [20],10
same,"Plant response rating, Foxtail, Giant",[14]; [21],70
same,"Foxtail, Giant plant response rating",[14]; [22],30
same,"Plant response rating, Foxtail, Giant",[14]; [23],90
same,"Plant response rating, Wheat",[15]; [20],0
same,"Plant response rating, Wheat",[15]; [21],0
same,"Plant response rating, Barnyardgrass",[16]; [20],10
same,"Plant response rating, Barnyardgrass",[16]; [21],40
same,Barnyardgrass plant response rating,[16]; [22],20
same,"Plant response rating, Barnyardgrass",[16]; [23],70

# Source: patent US10131652B2, “Pyrimidinyloxy benzene derivatives as herbicides” (E. I. DU PONT DE NEMOURS AND COMPANY, priority 2014, dated 2018)
